Values of other authors, collected in patent publication US12296050B2, “Pharmaceutical compositions comprising maralixibat and uses thereof” (Mirum Pharmaceuticals, Inc., priority 2023, dated 2025).

Molecular target: T1, apical sodium co-dependent bile acid transport (Homo sapiens, UniProt Q12908)
T1 sequence (Q12908 1-348): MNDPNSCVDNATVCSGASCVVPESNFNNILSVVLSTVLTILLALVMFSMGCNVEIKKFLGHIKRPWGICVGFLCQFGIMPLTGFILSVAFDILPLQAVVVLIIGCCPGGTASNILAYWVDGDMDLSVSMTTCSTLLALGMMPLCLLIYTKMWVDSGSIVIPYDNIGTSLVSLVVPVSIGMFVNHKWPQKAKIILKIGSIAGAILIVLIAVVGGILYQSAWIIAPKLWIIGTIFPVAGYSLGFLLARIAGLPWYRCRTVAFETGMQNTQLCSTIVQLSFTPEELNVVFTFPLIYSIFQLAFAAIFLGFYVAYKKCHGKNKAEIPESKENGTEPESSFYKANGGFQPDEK
Conditions: known from U.S. Pat. No. 5,994,391

With `CCCCC1(CCCC)CS(=O)(=O)c2ccc(N(C)C)cc2[C@@H](c2ccc(OCc3ccc(C[N+]45CCN(CC4)CC5)cc3)cc2)[C@H]1O.[Cl-]` [maralixibat chloride] as the compound, how does the “Effect on apical sodium co-dependent bile acid transport, in words” value read?
Its value is “inhibits”.
